In patent US20240216317A1, “COMPOSITION FOR PREVENTING, AMELIORATING OR TREATING INFLAMMATORY BOWEL DISEASE COMPRISING COMPOUND ISOLATED FROM ISODON EXCISUS AS EFFECTIVE COMPONENT” (HEALINNOLS INC., priority 2022, published 2024):

Tested on: TNF-α
Assay: TNF-α mRNA expression (qPCR) in zebra fish animal model of DSS-induced inflammatory bowel disease
Assay type: in vivo, zebra fish (Danio rerio: AB)
Details: FIG. 5; for expression amount of TNF-α compared to DSS model group: zebra fish larvae, 0.5% DSS, 5 hours treatment, Chemical formula 1 0.3 μM and 1 μM
Experimental: As a zebra fish animal model of inflammatory bowel disease, wild-type zebra fish (Danio rerio: AB) was used, which was kept in an exclusive breeding facility at conditions including light/dark cycle of 14 hours/10 hours and temperature of 28° C. All the animal experiments were carried out according to the protocol of Ethics Committee for Animal Expectation, Healinno-LS (Registration No.: AEC-20210720-0001), and all the materials were sterilized first before they are used for experiment.
According to a treatment with 0.5% DSS (dextran sulfate sodium, M.W. 36,000-50,000, #160110, MP), which induces “ulcerative colitis” as inflammatory bowel disease by creating a damage in colonic epithelial cells, a zebra fish was induced to have inflammatory bowel disease. Then, by threating the zebra fish with the compound represented by Chemical formula 1 of the present invention at different concentrations (0.3 μM and 1 μM), inhibitory activity on inflammatory bowel disease was examined.
As a zebra fish animal model of DSS-induced ulcerative colitis, zebra fish larvae 3 days after fertilization (3 dpf; days post fertilization) were used. 3 dpf zebra fish larvae were added to a 24-well plate, i.e., 20 larvae per well, and treated with 0.5% DSS to induce ulcerative colitis. After keeping them to 6 dpf zebra fish larva period, DSS was removed, and then they were treated for 5 hours with the compound represented by Chemical formula 1 of the present invention.
The zebra fish larvae which have been treated with the compound represented by Chemical formula 1 of the present invention were then added with TRIzol reagent (300 μl), and then homogenized by using a tissue homogenizer (G20, GINKO). Homogenized zebra fish larvae were maintained for 5 minutes at room temperature, and then treated with chloroform (60 μl). After removing proteins and cell debris, the mixture was centrifuged for 15 minutes at 12,000×g, 4° C. […] Purity and concentration were measured by using a microplate reader (FLUOstar omega, BMG Labtech), and the extracted total RNA was kept at −80° C. […]

SMILES | reduction of transcription amount of proinflammatory cytokines (zebra fish DSS model, TNF-α and IL-1β, compared with 5-ASA and prednisolone) | expression amount of TNF-α compared to DSS model group
COC(=O)C[C@H](OC(=O)/C=C/c1ccc(O)c(O)c1)c1ccc(O)c(O)c1 [Compound 1, 3-[3,4-dihydroxyphenyl]acrylic acid 1-[3,4-dihydroxyphenyl]-2-methoxycarbonylethyl ester] | much lower concentration than 5-ASA and prednisolone | statistically significantly lower
Nc1ccc(O)c(C(=O)O)c1 [Compound 5-ASA, 5-aminosalicylic acid, reference compound] | – | statistically significantly lower
